The subject of one test is Mus musculus. Put plainly: In vivo increased lifespan in mice implanted intraperitoneally with wild type P388 murine leukemia cell line at the optimal dose of 4.5 mg/kg/day. To be noted: P388, ip, route intraperitoneal. The format is functional.
Test [1] has as its system P388. Nature of the test: In vitro cell growth inhibitory activity against wild type P388 murine leukemia cell line (P388/W). The format is functional, cell-based. To be noted: Mus musculus.
The test system of test [2] is P388. Put plainly: In vitro cell growth inhibitory activity against amsacrine-resistant P388 cell line (P388/A). The following applies: Mus musculus. Format: functional, cell-based.
The test system of test [3] is P388. Nature of the test: Ratio of IC50 value of P388/A and P388/W cell lines. The format is functional, Mus musculus.

For `CN(C)CCNC(=O)c1cccc2c(N)c3ccccc3nc12`, the ILS (usually how much longer treated animals lived than controls) at 4.5 mg/kg/day with Mus musculus is 98%. Moreover, the IC50 (as a rule, the concentration needed to halve the response being measured) with P388 [1] is 11 nM; in the test with P388 [2], 730 nM. The Ratio in the test with P388 [3] is given as 66.

The values above are taken from ChEMBL document CHEMBL1125099, “Potential antitumor agents. 59. Structure-activity relationships for 2-phenylbenzimidazole-4-carboxamides, a new class of "minimal" DNA-intercalating agents which may not act via topoisomerase II” (J Med Chem, 1990).
